# According to patent US7141590B2, “Pharmaceutical uses and synthesis of nicotinanilide-N-oxides” (UCB SA, priority 2000, dated 2006):
# T1: IL-8 type β receptor (IL-8Rβ) (Homo sapiens, UniProt P25025)
# T1 construct: purchased BioSignal, Montreal, Canada; host or cells: Sf9 cells
# T1 sequence (P25025 1-360): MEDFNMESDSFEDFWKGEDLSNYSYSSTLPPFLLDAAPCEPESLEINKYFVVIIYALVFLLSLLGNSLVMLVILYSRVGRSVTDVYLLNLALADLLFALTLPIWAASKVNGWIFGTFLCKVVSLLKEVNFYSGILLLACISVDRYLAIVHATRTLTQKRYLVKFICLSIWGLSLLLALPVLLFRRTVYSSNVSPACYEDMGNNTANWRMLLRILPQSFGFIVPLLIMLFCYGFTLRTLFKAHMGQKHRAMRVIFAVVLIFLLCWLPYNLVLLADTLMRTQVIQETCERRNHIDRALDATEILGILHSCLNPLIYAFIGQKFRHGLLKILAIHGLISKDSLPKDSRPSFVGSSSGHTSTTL
# B1: MIP-1β: microphage inflammatory protein; standard reference agent used in CCR5 assay (protein, UniProt P13236 24-92, looked up)
# C-C motif chemokine 4: APMGSDPPTACCFSYTARKLPRNFVVDYYETSSLCSQPAVVFQTKRSKQVCADPSESWVQEYVYDLELN
# modifications: ends and bridges not checked
# Legend:
# [1] = molecular target: T2, human chemokine CCR5 receptor (Homo sapiens, UniProt P51681); settings: CCR5 reference data; cited from earlier work
# T2 construct: host or cells: CHO-K1-p242-CCR5 cells
# T2 sequence (P51681 whole entry): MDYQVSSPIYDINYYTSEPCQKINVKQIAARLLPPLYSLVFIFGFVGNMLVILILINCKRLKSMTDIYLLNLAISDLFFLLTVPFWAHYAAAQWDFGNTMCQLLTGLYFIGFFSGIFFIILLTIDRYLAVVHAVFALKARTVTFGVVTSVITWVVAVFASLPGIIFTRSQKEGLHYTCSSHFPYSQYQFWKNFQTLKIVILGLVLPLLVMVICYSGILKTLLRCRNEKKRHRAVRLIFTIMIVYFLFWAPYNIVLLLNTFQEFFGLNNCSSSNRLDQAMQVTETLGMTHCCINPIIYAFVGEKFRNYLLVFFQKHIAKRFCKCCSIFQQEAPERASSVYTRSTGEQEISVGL
# [2] = molecular target: T1, IL-8 type β receptor (IL-8Rβ); experiment: [125I] IL-8 binding assay (WGA-SPA beads, IL-8Rβ membranes); settings: 20 uM compound; [125I] IL-8, IL-8Rβ membranes
# Procedure: IL-8 (human recombinant) was obtained from NEN Life Science Products, Inc., Boston, Mass., with specific activity of 2200 Ci/mmol. Recombinant human IL-8 was obtained from R&D Systems, Minneapolis, Minn. IL-8 type β receptor membranes were prepared from […] co-expressed with Gαi3β1γ2 proteins by BioSignal™, Montreal, Canada. Wheat Germ Agglutinin Scintillation Proximity Assay Beads were obtained from Amersham Pharmacia Biotech, Piscataway, N.J. All assays were performed in a 96-well, solvent resistant, white PicoPlate obtained from Packard Instruments. […] The assay was initiated by the addition of WGA-SPA beads in 25 mM Hepes (pH 7.4) containing 2 mM CaCl2 and 1 mM MgCl2. After 4–6 hours of gentle agitation at room temperature, the plate was counted on the Packard TopCount liquid scintillation counter.
# [3] = tested on: polymorphonuclear neutrophils (PMNs); experiment: GRO-α driven chemotaxis assay with PMNs (ChemoTx plate); format: cell-based; settings: 20 μM compound; 50 nM GRO-α, human PMNs
# Procedure: Peripheral blood from healthy human volunteers was collected into heparin, diluted in an equal volume of PBS, layered over Ficoll-Paque Plus (Pharmacia Biotech, Uppsala, Sweden), and spun at 400×g for 30 min. The PMN rich fraction was removed and residual erythrocytes were lysed with hypotonic saline. The polymorphonuclear neutrophils (PMNs) were washed once with assay buffer (Dulbecco's PBS containing divalent cations and 0.1% endotoxin-free BSA), and resuspended at 1E7 cells/mL in the same buffer. PMNs were loaded with 5 μM calcein AM (Molecular Probes, Eugene, Oreg.), washed twice and resuspended in assay buffer.
# Growth Regulatory Oncogene a (GRO-α) driven chemotaxis assays were performed according to the following protocol. […] Test compounds were dissolved in DMSO (100%) at 20 mM and diluted in assay buffer to the desired concentrations; final DMSO concentration was 0.2%. Neutrophil migration proceeded for 40 min at 37° C. in a humidified incubator with 5% CO2. After removing nonmigrated cells from the top of the plate, migrated cells were quantified by reading fluorescence on a Wallac Victor.
# The ratio of the positive to negative controls represents the chemotactic index of the cells. The results from this assay are reported in Tables 3–5, under the column headings IL-8 and GRO-α, and under the sub-column headings ChTx (for chemotaxis).
Molecule,IC50 [1],Ki [1],nH [1],"IL-8 Binding @ 20 uM, % [2]","GRO-α ChTx @ 20 μM, % [3]"
MIP-1α: microphage inflammatory protein,0.039 nM,0.03 nM,0.8,–,–
RANTES: regulated on activation of normal T-cell expressed and secreted,0.012 nM,0.0093 nM,0.9,–,–
O=C(NCc1ccco1)c1ccc(Cl)[n+]([O-])c1,–,–,–,* (“*” for % values of less than or equal to 40),* (“*” for % values of less than or equal to 40)
O=C(Nc1ccc(OCc2ccccc2)cc1)c1ccc(Cl)[n+]([O-])c1,–,–,–,* (“*” for % values of less than or equal to 40),** (“**” for % values greater than 40)
O=C(Nc1ccc(F)cc1)c1ccc(S(=O)(=O)c2ccc(F)cc2)[n+]([O-])c1,–,–,–,** (“**” for % values greater than 40),** (“**” for % values greater than 40)
O=C(Nc1ccc(F)cc1)c1ccc(S(=O)(=O)C2CCCC2)[n+]([O-])c1 [drawing 53],–,–,–,** (“**” for % values greater than 40),** (“**” for % values greater than 40)
O=C(Nc1cc(C(F)(F)F)cc(C(F)(F)F)c1)c1ccc(Cl)[n+]([O-])c1,–,–,–,* (“*” for % values of less than or equal to 40),* (“*” for % values of less than or equal to 40)
CSc1ccc(C(=O)Nc2ccc(F)cc2)c[n+]1[O-],–,–,–,** (“**” for % values greater than 40),** (“**” for % values greater than 40)
O=C(NC1CCCC1)c1ccc(Cl)[n+]([O-])c1,–,–,–,* (“*” for % values of less than or equal to 40),* (“*” for % values of less than or equal to 40)
"O=C(Nc1ccc(F)cc1)c1ccc(Cl)[n+]([O-])c1 [Cl—, 6-Chloro-N-(4-fluoro-phenyl)-1-oxy-nicotinamide]",–,–,–,**(1) (“**” for % values greater than 40),** (“**” for % values greater than 40)
Cc1cc(F)ccc1NC(=O)c1ccc(Cl)[n+]([O-])c1,–,–,–,* (“*” for % values of less than or equal to 40),** (“**” for % values greater than 40)
CC(C)(C)c1ccc(NC(=O)c2ccc(Cl)[n+]([O-])c2)cc1,–,–,–,* (“*” for % values of less than or equal to 40),** (“**” for % values greater than 40)
O=C(Nc1ccc(OC(F)(F)F)cc1)c1ccc(Cl)[n+]([O-])c1,–,–,–,* (“*” for % values of less than or equal to 40),* (“*” for % values of less than or equal to 40)
O=C(Nc1ccc(F)cc1)c1ccc(NCc2ccccc2)[n+]([O-])c1,–,–,–,* (“*” for % values of less than or equal to 40),* (“*” for % values of less than or equal to 40)
O=C(NCc1ccccc1)c1ccc(Cl)[n+]([O-])c1,–,–,–,* (“*” for % values of less than or equal to 40),* (“*” for % values of less than or equal to 40)
O=C(Nc1ccc(I)c(Cl)c1)c1ccc(Cl)[n+]([O-])c1,–,–,–,* (“*” for % values of less than or equal to 40),** (“**” for % values greater than 40)
O=C(Nc1ccc(I)cc1)c1ccc(Cl)[n+]([O-])c1,–,–,–,* (“*” for % values of less than or equal to 40),** (“**” for % values greater than 40)
CCCCCNc1ccc(C(=O)Nc2ccc(F)cc2)c[n+]1[O-],–,–,–,* (“*” for % values of less than or equal to 40),** (“**” for % values greater than 40)
CCSc1ccc(C(=O)Nc2ccc(F)cc2)c[n+]1[O-],–,–,–,* (“*” for % values of less than or equal to 40),* (“*” for % values of less than or equal to 40)
O=C(Nc1cccc(OC(F)(F)F)c1)c1ccc(Cl)[n+]([O-])c1,–,–,–,* (“*” for % values of less than or equal to 40),* (“*” for % values of less than or equal to 40)
B1,0.074 nM,0.057 nM,0.9,–,–
